The structures appear in SMILES notation.

One assay has as its target T1, CDK1/Cyclin B1, GST-tag (Homo sapiens, UniProt P06493).
T1 construct: GST
The experiment in a line: CDK1/Cyclin B1 biochemical phosphorylation assay (Caliper mobility shift). The conditions noted are these: apparent IC50; 1.0 mM ATP or ATP Km; 1.5 nM enzyme; 25° C. The method, then:
(§1) Inhibitory effects of the compounds of the disclosure were measured in biochemical assays that measure the enzymatic phosphorylation activity of CDK enzyme in complex of Cyclin proteins phosphorylates 7.5 micromolar fluorescently labelled peptide substrate, 5-FAM-QSPKKG-CONH2, (FL-Peptide 18, Perkin Elmer, 760362) in the presence of adenosine-5′-triphosphate (ATP) and varying concentrations of the test compound in 100 mM 2-[4-(2-hydroxyethyl)piperazin-1-yl] ethanesulfonic acid (HEPES), pH 7.5, 10 mM MgCl2, 0.015% Brij-35, 1 mM dithiothreitol (DTT), 1.0% dimethylsulfoxide (DMSO). Assays were performed at 1.0 mM ATP or at ATP Km of the CDK enzymes in complex with Cyclin proteins. Reactions proceeded until between 10% to 20% total peptides were phosphorylated at room temperature (25° C.) and were terminated with 35 mM 2,2′,2″,2′″-(ethane-1,2-diyldinitrilo)tetraacetic acid (EDTA). Product was detected using the Caliper mobility shift detection method where the phosphorylated peptide (product) and substrate were electrophoretically separated and measured. Percent activity was plotted against log concentration of compound and points to generate an apparent IC50. The following CDK enzymes in complex with different cyclin proteins were used in these assays: • CDK1/Cyclin B1, GST-tag (BPS, 40454), 1.5 nM used in the assay • CDK2/Cyclin E (Eurofins, 14-475), 1.25 nM used in the assays
(§2) For inhibitory activity against CDK2/Cyclin E mutant, the following designations are used: ≤10 nM=A; >10-20 nM=B; >20-30 nM=C; >30-100 nM=D and >100=E. For inhibition CDK1/Cyclin B1, GST-tag: ≥500 nM=A; <100-500 nM=B; <100 nM=C.

A further assay deals with CDK2/Cyclin E (Homo sapiens, UniProt P24941). Description: CDK2/Cyclin E biochemical phosphorylation assay (Caliper mobility shift). The conditions noted are these: apparent IC50; 1.0 mM ATP or ATP Km; 1.25 nM enzyme; 25° C.; read-out: CDK2/cyclin E1 IC50. The method, then: as §1, §2

T1 sequence (P06493 whole entry): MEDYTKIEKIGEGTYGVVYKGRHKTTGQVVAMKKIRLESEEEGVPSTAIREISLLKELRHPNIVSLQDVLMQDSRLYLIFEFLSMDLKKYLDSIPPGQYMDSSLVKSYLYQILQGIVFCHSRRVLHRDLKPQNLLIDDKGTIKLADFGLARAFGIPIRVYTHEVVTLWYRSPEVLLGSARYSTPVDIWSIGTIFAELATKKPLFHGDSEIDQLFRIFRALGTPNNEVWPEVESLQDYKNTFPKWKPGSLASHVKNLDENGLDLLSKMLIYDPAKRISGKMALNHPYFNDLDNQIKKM
T1 sequence (P14635 whole entry partner): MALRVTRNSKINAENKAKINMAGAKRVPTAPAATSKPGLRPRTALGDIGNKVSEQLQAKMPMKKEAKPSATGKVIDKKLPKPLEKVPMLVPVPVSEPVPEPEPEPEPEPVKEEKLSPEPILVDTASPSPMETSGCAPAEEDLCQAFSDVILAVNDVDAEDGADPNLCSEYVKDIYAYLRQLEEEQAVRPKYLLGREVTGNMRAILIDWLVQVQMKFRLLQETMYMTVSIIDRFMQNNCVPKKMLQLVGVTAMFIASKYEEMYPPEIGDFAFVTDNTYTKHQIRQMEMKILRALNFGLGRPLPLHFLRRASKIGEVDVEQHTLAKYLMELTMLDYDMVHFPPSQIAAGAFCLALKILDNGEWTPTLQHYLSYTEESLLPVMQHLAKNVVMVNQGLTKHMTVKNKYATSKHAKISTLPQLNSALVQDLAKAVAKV

As for `CC(C)Cn1ncc2ncc(Nc3cc(OC(F)F)[nH]n3)nc21` [Example 100, N-(5-(difluoromethoxy)-1H-pyrazol-3-yl)-1-isobutyl-1H-pyrazolo[3,4-b]pyrazin-6-amine], the IC50 at CDK1/Cyclin B1, GST-tag was at least 500 nM; on CDK2/Cyclin E it was 10 to 20 nM.

As for `C[C@@H](c1cccnc1F)n1ncc2ncc(Nc3cc(OC(F)F)[nH]n3)nc21` [Example 8, (S)—N-(5-(difluoromethoxy)-1H-pyrazol-3-yl)-1-(1-(2-fluoropyridin-3-yl)ethyl)-1H-pyrazolo[3,4-b]pyrazin-6-amine], the IC50 at CDK1/Cyclin B1, GST-tag was below 100 nM; on CDK2/Cyclin E it was at most 10 nM.

Consider `FC(F)Oc1cc(Nc2cnc3cnn(C[C@H]4CCCOC4)c3n2)n[nH]1` (single isomer, unassigned) [Example 142, (S)-N-(5-(difluoromethoxy)-1H-pyrazol-3-yl)-1-((tetrahydro-2H-pyran-3-yl)methyl)-1H-pyrazolo[3,4-b]pyrazin-6-amine or (R)-N-(5-(difluoromethoxy)-1H-pyrazol-3-yl)-1-((tetrahydro-2H-pyran-3-yl)methyl)-1H-pyrazolo[3,4-b]pyrazin-6-amine], for which the IC50 on CDK1/Cyclin B1, GST-tag was 100 to 500 nM; on CDK2/Cyclin E it was at most 10 nM.

For the compound `FC(F)Oc1cc(Nc2cnc3cnn(Cc4cccnc4)c3n2)n[nH]1` [Example 35, N-(5-(difluoromethoxy)-1H-pyrazol-3-yl)-1-(pyridin-3-ylmethyl)-1H-pyrazolo[3,4-b]pyrazin-6-amine], the IC50 is at least 500 nM on CDK1/Cyclin B1, GST-tag and at most 10 nM on CDK2/Cyclin E.

`FC(F)Oc1cc(Nc2cnc3cnn(C[C@H]4CCCCO4)c3n2)n[nH]1` [Example 107, (R)-N-(5-(difluoromethoxy)-1H-pyrazol-3-yl)-1-((tetrahydro-2H-pyran-2-yl)methyl)-1H-pyrazolo[3,4-b]pyrazin-6-amine]: the IC50 is at least 500 nM on CDK1/Cyclin B1, GST-tag and 20 to 30 nM on CDK2/Cyclin E.

In the case of `FC(F)Oc1cc(Nc2cnc3cnn(CCc4cn[nH]c4)c3n2)n[nH]1` [Example 129, 1-(2-(1H-pyrazol-4-yl)ethyl)-N-(5-(difluoromethoxy)-1H-pyrazol-3-yl)-1H-pyrazolo[3,4-b]pyrazin-6-amine], the IC50 is 100 to 500 nM at CDK1/Cyclin B1, GST-tag and at most 10 nM on CDK2/Cyclin E.

Consider `OCC1CC(n2ncc3ncc(Nc4cc(OC(F)F)[nH]n4)nc32)C1` (stereo not drawn) [Example 219, (3-(6-((5-(difluoromethoxy)-1H-pyrazol-3-yl)amino)-1H-pyrazolo [3,4-b]pyrazin-1-yl)cyclobutyl)methanol], for which the IC50 at CDK1/Cyclin B1, GST-tag was at least 500 nM; on CDK2/Cyclin E, 20 to 30 nM.

As for `FC[C@@H](C1CCOCC1)n1ncc2ncc(Nc3cc(OC(F)F)[nH]n3)nc21` (single isomer, unassigned) [Example 31], the IC50 was below 100 nM on CDK1/Cyclin B1, GST-tag and at most 10 nM on CDK2/Cyclin E.

For the compound `C[C@@H](C1CCOCC1)n1nc(F)c2ncc(Nc3cc(OC(F)F)[nH]n3)nc21` [Example 124, (S)-N-(5-(difluoromethoxy)-1H-pyrazol-3-yl)-3-fluoro-1-(1-(tetrahydro-2H-pyran-4-yl)ethyl)-1H-pyrazolo[3,4-b]pyrazin-6-amine], the IC50 on CDK1/Cyclin B1, GST-tag is 100 to 500 nM; on CDK2/Cyclin E, at most 10 nM.

Turning to `COc1cc(Nc2cnc3cnn(C[C@H]4C[C@@H]4C#N)c3n2)n[nH]1` (single isomer, unassigned) [Example 196, (1S,2S)-2-((6-((5-methoxy-1H-pyrazol-3-yl)amino)-1H-pyrazolo[3,4-b]pyrazin-1-yl)methyl)cyclopropane-1-carbonitrile or (1R,2R)-2-((6-((5-methoxy-1H-pyrazol-3-yl)amino)-1H-pyrazolo[3,4-b]pyrazin-1-yl)methyl)cyclopropane-1-carbonitrile], the IC50 on CDK1/Cyclin B1, GST-tag is at least 500 nM; on CDK2/Cyclin E it was above 100 nM.

For the compound `FC(F)Oc1cc(Nc2cnc3cnn(CC4(F)CCOCC4)c3n2)n[nH]1` [Example 112, N-(5-(difluoromethoxy)-1H-pyrazol-3-yl)-1-((4-fluorotetrahydro-2H-pyran-4-yl)methyl)-1H-pyrazolo[3,4-b]pyrazin-6-amine], the IC50 at CDK1/Cyclin B1, GST-tag was at least 500 nM; on CDK2/Cyclin E, 20 to 30 nM.

Consider `C[C@H](C1CCOCC1)n1ncc2ncc(Nc3cc(OC(F)F)[nH]n3)nc21` [Example 34, (R)-N-(5-(difluoromethoxy)-1H-pyrazol-3-yl)-1-(1-(tetrahydro-2H-pyran-4-yl)ethyl)-1H-pyrazolo[3,4-b]pyrazin-6-amine], for which the IC50 at CDK1/Cyclin B1, GST-tag is at least 500 nM; on CDK2/Cyclin E it was 10 to 20 nM.

Turning to `Cc1ncccc1Cn1ncc2ncc(Nc3cc(OC(F)F)[nH]n3)nc21` [Example 95, N-(5-(difluoromethoxy)-1H-pyrazol-3-yl)-1-((2-methylpyridin-3-yl)methyl)-1H-pyrazolo[3,4-b]pyrazin-6-amine], the IC50 on CDK1/Cyclin B1, GST-tag is at least 500 nM; at CDK2/Cyclin E, 20 to 30 nM.

On to `FC(F)Oc1cc(Nc2cnc3cnn(Cc4ccccc4)c3n2)n[nH]1` [Example 36, 1-benzyl-N-(5-(difluoromethoxy)-1H-pyrazol-3-yl)-1H-pyrazolo[3,4-b]pyrazin-6-amine], for which the IC50 was at least 500 nM on CDK1/Cyclin B1, GST-tag and 20 to 30 nM at CDK2/Cyclin E.

With `C[C@@H](c1cnccc1F)n1ncc2ncc(Nc3cc(OC(F)F)[nH]n3)nc21` (single isomer, unassigned) [Example 173, (S)-N-(5-(difluoromethoxy)-1H-pyrazol-3-yl)-1-(1-(4-fluoropyridin-3-yl)ethyl)-1H-pyrazolo[3,4-b]pyrazin-6-amine or (R)-N-(5-(difluoromethoxy)-1H-pyrazol-3-yl)-1-(1-(4-fluoropyridin-3-yl)ethyl)-1H-pyrazolo[3,4-b]pyrazin-6-amine], the IC50 on CDK1/Cyclin B1, GST-tag is at least 500 nM; on CDK2/Cyclin E, 20 to 30 nM.

In the case of `CC1(Cn2ncc3ncc(Nc4cc(OC(F)F)[nH]n4)nc32)COC1` [Example 119, N-(5-(difluoromethoxy)-1H-pyrazol-3-yl)-1-((3-methyloxetan-3-yl)methyl)-1H-pyrazolo[3,4-b]pyrazin-6-amine], the IC50 at CDK1/Cyclin B1, GST-tag was at least 500 nM; at CDK2/Cyclin E, at most 10 nM.

For `O[C@H]1CC[C@H](n2ncc3ncc(Nc4cc(OC(F)F)[nH]n4)nc32)CC1` [Example 3, (1r,4r)-4-(6-((5-(difluoromethoxy)-1H-pyrazol-3-yl)amino)-1H-pyrazolo[3,4-b]pyrazin-1-yl)cyclohexan-1-ol], the IC50 on CDK1/Cyclin B1, GST-tag was 100 to 500 nM; on CDK2/Cyclin E, at most 10 nM.

As to `Fc1ccccc1Cn1ncc2ncc(Nc3cc(OC(F)F)[nH]n3)nc21` [Example 37, N-(5-(difluoromethoxy)-1H-pyrazol-3-yl)-1-(2-fluorobenzyl)-1H-pyrazolo[3,4-b]pyrazin-6-amine], the IC50 on CDK1/Cyclin B1, GST-tag was at least 500 nM; at CDK2/Cyclin E, 20 to 30 nM.

Regarding `C[C@@H]([C@@H]1COCCO1)n1ncc2ncc(Nc3cc(OC(F)F)[nH]n3)nc21` (single isomer, unassigned) [Example 212], the IC50 on CDK1/Cyclin B1, GST-tag was at least 500 nM; at CDK2/Cyclin E, above 100 nM.

For the compound `FC[C@H](C1CCOCC1)n1ncc2ncc(Nc3cc(OC(F)F)[nH]n3)nc21` (single isomer, unassigned) [Example 183], the IC50 at CDK1/Cyclin B1, GST-tag is at least 500 nM; on CDK2/Cyclin E, 30 to 100 nM.

Take `CCC([C@@H](C)O)n1ncc2ncc(Nc3cc(OC(F)F)[nH]n3)nc21` (single isomer, unassigned) [Example 202]: the IC50 at CDK1/Cyclin B1, GST-tag was at least 500 nM; at CDK2/Cyclin E, 30 to 100 nM.
